Literature values as cited in US20150190413A1, “COMPOSITIONS AND METHODS FOR THE TREATMENT OF BLADDER CANCER” (Endo Pharmaceuticals Solutions Inc., priority 2007, published 2015).
Where two headings read alike, the source gives them in different places.

System: epithelium of the bladder
Details: rabbit

Effect on epithelium of the bladder (five percent solutions of DMSO in water): sensitive
Effect on bladder cells (one hundred percent DMSO): fixed
Effect on epithelium of the bladder (twenty percent solutions of DMSO in water): loss of epithelial cells
Compound: C[S+](C)[O-] [DMSO, dimethyl sulfoxide]
